Values quoted from earlier work in patent US9023395B2, “Formulation of active agent loaded activated PLGA nanoparticles for targeted cancer nano-therapeutics” (University of North Texas Health Science Center at Fort …, priority 2007, dated 2015).

Settings: for Solubility: solvent in which the linker is soluble

water solubility | Solubility | Compound
water insoluble | DMSO | O=C(CCN1C(=O)C=CC1=O)ON1C(=O)CCC1=O [BMPS, N-[b-maleimidopropyl-oxy] succinimide ester]
water insoluble | DMSO | O=C(CCCC(=O)ON1C(=O)CCC1=O)ON1C(=O)CCC1=O [DSG, Disuccinimidyl glutarate]
– | DMSO | CCCCCCCCCCCCCCCC(=O)ON1C(=O)CCC1=O [PAS, Palmitic acid N- hydroxysuccin- imide ester]
